This is an account of results in PubChem BioAssay AID1902 (Broad Institute, 2009).

The source made the active and inactive calls.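 The calls were made as follows: active = EC50 no more than a set limit of log units above the highest dose; inactive = the rest.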

For orientation: EC50 means the concentration giving half of the maximal effect.

This test addresses S. pyogenes SKKanGAS, kanamycin survival, BacTiterGlo, 6 h. The test is described as follows: SKKanGAS survival reduction under kanamycin, dose response, streptokinase promoter inhibitor project, SKKanGAS strain, luminescence, dose confirmation (AID 1902).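 Also: lower survival reflects blocked streptokinase promoter driving kanamycin resistance gene.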

As to `Clc1ccc(N2COC3c4cccc5cccc(c45)C32)cc1` (centres undefined), the EC50 was 7.55 µM.

In the case of `COc1ccccc1C(NC(C)=O)c1cc(Cl)c2cccnc2c1O` (centres undefined), the EC50 was 2.91 µM.

On to `CN(C)c1nc(N/N=C/c2ccccc2O)nc(Nc2ccc(F)cc2)n1`, for which the EC50 is 3.79 µM.

Turning to `Nc1nonc1-n1nnc(C(=O)N/N=C/c2cc(Br)ccc2O)c1CNc1ccccc1`, the EC50 was 0.394 µM.

With `CCCCCCCC(=O)NNC(=O)c1c(O)c2ccccc2n(CCC)c1=O`, the EC50 was 1.1 µM.

For the molecule `COc1cnc(-c2ccccn2)nc1Oc1c(C)cccc1C`, the EC50 was 0.202 µM.

In the case of `Cc1coc2c1C(=O)C(=O)c1c-2ccc2c(C)cccc12`, the EC50 is 2.75 µM.

With `O=C(CCCCCNC(=O)c1ccccc1)N=Nc1c(O)[nH]c2c(Br)cc(Br)cc12`, the EC50 is 5.43 µM.

As to `Cc1cc(N/N=C/c2cccc(Cl)c2)nc(-n2nc(C)cc2C)n1`, the EC50 is 0.966 µM.

Consider `O=C(CCl)c1ccc(Cc2ncc(C(F)(F)F)cc2Cl)s1`, for which the EC50 is 3.69 µM.

Take `C/C(CC(=O)Nc1ccc(Cl)c(C(F)(F)F)c1)=N\NC(=O)c1cc2ccccc2cc1O`: the EC50 was 1.58 µM.

As to `C=C(C)COc1ccc(-c2nc(N)ncc2Oc2ccc(OC)cc2)c(O)c1`, the EC50 was 6.59 µM.

Turning to `Oc1ccc(COCc2ccccc2)c2cccnc12`, the EC50 is 1.85 µM.

On to `Cc1c(Cl)c([N+](=O)[O-])nn1Cc1ccc(C(=O)N/N=C\c2cc(Cl)ccc2O)o1`, for which the EC50 was 1.48 µM.

In the case of `CC(C)C1Cc2c(sc3[nH]c(=S)n(Cc4ccccc4)c(=O)c23)CO1` (centres undefined), the EC50 is 2.93 µM.

On to `OC(CNCC1CCCO1)Cn1c2ccc(Br)cc2c2cc(Br)ccc21` (centres undefined), for which the EC50 was 3.47 µM.

Regarding `O=c1cc(-c2ccc(O)c(-c3c(O)cc(O)c4c(=O)cc(-c5ccc(O)cc5)oc34)c2)oc2cc(O)cc(O)c12`, the EC50 is 2.3 µM.

Take `CCOC(=O)C(C(=O)OCC)c1cc(Br)c2noc3c2c1C(=O)c1ccccc1-3`: the EC50 is 3.7 µM.

`C/C(=N/Nc1nc(-c2ccccc2F)nc2ccccc12)c1ccccc1O`: the EC50 was 8.27 µM.

On to `C#CCN1C(=O)S/C(=C\c2ccc(-c3ccc(Cl)c(C(=O)O)c3)o2)C1=O`, for which the half-maximal effective concentration (EC50) is 2.83 µM.

As for `O=C(N/N=C\C=C\c1ccc([N+](=O)[O-])o1)c1cccs1`, the EC50 was 1.97 µM.

For the molecule `Cn1c(Sc2ccccc2Cl)c(C=O)c2ccccc21`, the EC50 was 5.92 µM.

As to `CCOc1cc(/C=C(\C#N)c2nc(-c3cccs3)c(NC(C)=O)s2)ccc1O`, the EC50 was 0.385 µM.

As to `Cc1cccc(Nc2nc(N)nc(CN3CCN(c4ccccc4F)CC3)n2)c1`, the EC50 was 15.4 µM.

For the molecule `CC1(C)CC(=O)C2=C(C1)c1c(ccc3ccccc13)NC2c1cc([N+](=O)[O-])cc([N+](=O)[O-])c1O` (centres undefined), the EC50 is 4.55 µM.

`Cc1c(C(=O)N2CCC(Cc3ccccc3)CC2)sc2ncnc(N3CCC(C)CC3)c12`: the EC50 is 6.31 µM.

`CC12CCC(CC1)C(C)(C)O2`: the EC50 is > 15 µM (inactive).

Regarding `Cc1ccc(C(=O)OC2OC(=O)C(Cl)=C2N2CCOCC2)cc1` (centres undefined), the EC50 was 0.884 µM.

For the molecule `Clc1ccc(CO/N=C(\Cn2ccnc2)c2ccc(Cl)cc2Cl)c(Cl)c1`, the EC50 was 1.95 µM.

As for `CCc1cc2c(COC(=O)c3cccc(NS(C)(=O)=O)c3)cc(=O)oc2cc1O`, the 50% effective concentration (EC50) is 7.84 µM.

In the case of `O=C(C[n+]1ccc2ccccc2c1)Nc1cc(C(F)(F)F)ccc1Cl`, the EC50 is > 15 µM (inactive).

With `CCc1ccc(/C=N/n2c(C3CCCCC3)n[nH]c2=S)cc1`, the EC50 is 7.16 µM.

As to `COc1ccc(S(=O)(=O)NCC2CCCN(Cc3ccc(OC)cc3F)C2)cc1` (centres undefined), the EC50 is > 15 µM (inactive).

Take `CCc1sc(N(C(=O)Cc2ccccc2)c2ccc(F)cc2)nc1-c1ccccc1`: the concentration giving a half-maximal response (EC50) is 2.54 µM.

For `CC[C@H]1OC(=O)[C@H](C)[C@@H](O[C@H]2C[C@@](C)(OC)[C@@H](O)[C@H](C)O2)[C@H](C)[C@@H](O[C@@H]2O[C@H](C)C[C@H](N(C)C)[C@H]2O)[C@](C)(O)C[C@@H](C)CN(C)[C@H](C)[C@@H](O)[C@]1(C)O`, the EC50 is under 0.06 µM.

As to `COc1ccc2nc(-n3c(O)c(C4=c5ccccc5=NC4=O)[nH]c3=S)sc2c1`, the EC50 was 0.508 µM.

With `CC(C)(C)c1ccc(C(=O)N2CCN(C(=O)c3ccco3)CC2)cc1`, the EC50 is > 15 µM (inactive).

For the molecule `COc1ccc(-c2nnc(NC(=O)c3cc(Cl)ccc3Cl)o2)cc1`, the EC50 was 0.814 µM.

As for `O=C(Nc1cccc(Cl)c1)Nc1csc([N+](=O)[O-])c1`, the EC50 was 8.11 µM.

`Oc1c(Br)cc(Br)cc1CNc1cccc2cccnc12`: the EC50 is 4.47 µM.

For the molecule `CCCC(Oc1ccc(Br)cc1)c1nc2c3cc(OC)c(OC)cc3nc(=S)n2[nH]1` (centres undefined), the EC50 is 0.145 µM.

Consider `Cc1ccccc1C(=O)Oc1cccc(Nc2ncnc3ccccc23)c1`, for which the EC50 was 3.57 µM.

Regarding `CCN1/C(=C/C=C/c2oc3ccc(-c4ccccc4)cc3[n+]2CC)Oc2ccc(-c3ccccc3)cc21`, the EC50 was 2.07 µM.

Turning to `CCCC(=O)NCCc1ccc(F)cc1`, the EC50 is > 15 µM (inactive).

As to `Cc1nn(-c2ccccc2)c(C)c1/C=N/NC(=O)c1cc(-c2cccc3ccccc23)n[nH]1`, the EC50 was 6.54 µM.

`Clc1ccccc1Sc1ccc(-c2ccccn2)s1`: the EC50 is 5.48 µM.

As to `CCn1nc(NC(=O)c2ccncc2)c2cc3cc(C)ccc3nc21`, the EC50 is 2.66 µM.

As to `CC(=O)c1cccc2c(O)c(C3=Nc4ccccc4C3=O)[nH]c12`, the EC50 is 6.32 µM.

With `Cc1c2ccncc2c(C)c2c1[nH]c1ccccc12`, the EC50 was 3.02 µM.

As for `CC1CCN(c2nc(-c3ccccc3)cc(C(F)(F)F)n2)CC1`, the EC50 is 4.58 µM.

For `Cc1ccccc1Oc1nc(-c2ccccn2)nc2ccccc12`, the EC50 is 4.19 µM.

As for `O=C1[C@H]2C(c3ccccc3)=NN(c3ccccc3)[C@H]2C(=O)N1c1ccccc1`, the EC50 is 0.485 µM.

Regarding `CCN(CC)c1ccc(/C=N/Nc2nc3ccccc3[nH]2)c(O)c1`, the EC50 is 3.17 µM.

With `O=C(COc1ccc(F)cc1)Nc1nc(-c2ccccn2)cs1`, the EC50 is 5.55 µM.

For `Clc1ccc2c(N/N=C/c3ccc(Br)cc3)ccnc2c1`, the concentration giving a half-maximal response (EC50) is 3.14 µM.

For the molecule `CS(=O)(=O)c1ccc2nc(NC(=O)c3ccc(NS(=O)(=O)c4cccc([N+](=O)[O-])c4)cc3)sc2c1`, the EC50 was 1.64 µM.

As to `CCCCCCCCCCCCC(NC(C)=O)(C(=O)OCC)C(=O)OCC`, the EC50 is 6.05 µM.

Turning to `CC(=O)c1c(O)cc(O)c(C(C)=O)c1O`, the EC50 was 2.64 µM.

Regarding `O=C(Cc1ccc([N+](=O)[O-])cc1)N/N=C/c1ccc([N+](=O)[O-])o1`, the EC50 is 9.86 µM.

Turning to `Cc1cccc(NS(=O)(=O)c2ccc(C3CCCCC3)cc2)c1`, the EC50 was 4.82 µM.

Take `COc1cccc(Nc2c3c(nc4c(-c5ccccc5)c(C)nn24)CCC3)c1`: the EC50 is 1.8 µM.

For `Cc1ccc(S(=O)(=O)Nc2ccc(Cl)cc2)cc1NC(=O)c1cc2c(s1)CCCC2`, the EC50 is 6.63 µM.

On to `CCOc1ccc2nc(NC(=O)c3ccccn3)sc2c1`, for which the EC50 is 1.79 µM.

`CC(/C=C1\SC(=S)N(NS(=O)(=O)c2ccccc2)C1=O)=C\c1ccccc1`: the EC50 is 5.38 µM.

As to `COc1ccc(-c2cc(-c3ccc(C)cc3)n[nH]2)c(O)c1`, the EC50 is 2.76 µM.

Turning to `Cc1ccc(CN2CC(C(=O)Nc3nnc(SCc4c(Cl)cccc4Cl)s3)CC2=O)cc1` (centres undefined), the concentration for a half-maximal effect (EC50) was 4.87 µM.

For `CCOC(=O)c1ccc(NC(=O)c2nc(S(=O)(=O)Cc3ccccc3)ncc2Cl)cc1`, the EC50 was 9 µM.

Consider `CC(=O)OCC1=C(C(=O)O)N2C(=O)C(NC(=O)CCn3nc(C)c(Cl)c3C)C2SC1` (centres undefined), for which the half-maximal effective concentration (EC50) is 1.02 µM.

With `CCSc1n[nH]c2nc3c(c(=O)n12)C1(CCCC1)Cc1ccccc1-3`, the half-maximal effective concentration (EC50) is 3.75 µM.

Take `CCOC(=O)c1[nH]c2ccc(F)cc2c1NC(=O)c1ccccc1C(=O)O`: the EC50 is > 15 µM (inactive).

Regarding `COc1ccc(/C=C/C(=O)NC(=S)NNC(=O)c2ccco2)cc1`, the EC50 was 1.67 µM.

With `CCn1cc(C(=O)O)c(=O)c2cc(F)c(N3CCN(S(=O)(=O)c4ccc(NC(C)=O)cc4)CC3)cc21`, the EC50 was 4.65 µM.

`CCCCCCCCCCCCCCCC(O)C(N)CO` (centres undefined): the EC50 is 2.2 µM.

On to `O=C(NCC1CCCO1)c1cc2c([nH]c3ccccc32)c(-c2cccc(Cl)c2)n1` (centres undefined), for which the EC50 was 4.27 µM.

`CC(/C=C/c1ccc(N(C)C)cc1)=N\N=C1\NC(=O)CC(C(=O)Nc2ccccc2)S1` (centres undefined): the EC50 is 3.16 µM.

Turning to `CC1(C)Cc2c(cnn2-c2ccccc2)-c2c1c1ccccc1n2CC(O)CCl` (centres undefined), the EC50 is 5.24 µM.

In the case of `c1ccc(CCNc2nc(-c3ccccn3)cs2)cc1`, the EC50 was 3.71 µM.

Take `CCCCc1ccc(NC(=O)NCc2ccccn2)cc1`: the EC50 was > 15 µM (inactive).

As to `O=C(N/N=C/c1ccccc1O)c1ccc2c(c1)OCO2`, the concentration for a half-maximal effect (EC50) is 2.76 µM.

On to `Cc1nn(-c2ccccc2)c(Cl)c1/C=C1\SC(=S)N(CCCCCC(=O)O)C1=O`, for which the EC50 is 3.04 µM.

As to `CN(C)c1ccc(O)c2c1CC1CC3[C@@H](N(C)C)C(=O)C(C(N)=O)=C(O)[C@]3(O)C(=O)C1=C2O` (some centres undefined), the EC50 was 0.095 µM.

Turning to `O=[N+]([O-])c1ccc(/C=[N+](\[O-])CCO)o1`, the EC50 was 5.78 µM.

For `O=C(/C=C/c1ccc([N+](=O)[O-])o1)NNC(=O)c1ccc(F)cc1`, the EC50 was 1.8 µM.

Take `Cc1ccc(C(=O)Nc2nc(-c3ccccc3)c(-c3ccccc3)o2)cc1`: the EC50 is 0.541 µM.

Regarding `O=C(Nc1ccc2c(c1)CCC2)c1cc(S(=O)(=O)Nc2ccc(F)cc2)c(Cl)cc1Cl`, the 50% effective concentration (EC50) is 4.04 µM.

Take `Cc1cccnc1NCc1ccc(O)c2ncccc12`: the EC50 is 5.65 µM.

Turning to `Fc1ccc(Br)cc1C1C=C(c2ccc(Br)s2)Nc2ncnn21` (centres undefined), the EC50 was 6.39 µM.

As to `CC1CCCN(S(=O)(=O)c2ccc(C(=O)Nc3nnc(C4=COCCO4)o3)cc2)C1` (centres undefined), the EC50 was 5.27 µM.

Turning to `O=C(c1cc2ccccc2cc1O)N1CCN(c2ccccc2O)CC1`, the EC50 was 9.87 µM.

For the molecule `Cc1nc(Nc2cnc(/C=C/c3cc(C(=O)Nc4cccc(C(F)(F)F)c4)ccc3C)cn2)cc(N2CCNCC2)n1`, the EC50 was 6.36 µM.

Take `Oc1c(Br)cc(Br)cc1CNc1ccc(F)cc1`: the EC50 was 8.89 µM.

For `O=C(Nc1ccc(Br)c(C(F)(F)F)c1)c1ccc(C(F)(F)F)cc1`, the EC50 was 1.86 µM.

In the case of `CN1CCN(c2c(F)cc3c(=O)c(C(=O)O)cn4c3c2OCN4C)CC1`, the concentration giving a half-maximal response (EC50) is 3.29 µM.

Consider `Cc1cc(C)cc(C(=O)NC2C(=O)N3C(C(=O)O)=C(CSc4nnc(C)s4)CSC23)c1` (centres undefined), for which the EC50 was 0.38 µM.
